Where two headings read alike, the source gives them in different places.
Key:
HUVEC normal cells = experiment: MTS cell viability assay, HUVEC normal cells; format: cell-based, human; settings: Homo sapiens, HUVEC
Experimental: (§1) To determine the optimal working concentration, dose-effect curves were made for each compound in the range of concentrations between 6.25 and 400 μM.
(§2) LoVo (human colorectal adenocarcinoma) human cancer cell line and HUVEC normal cells were purchased from American Type Culture Collection (ATCC). The MCF-7 human breast adenocarcinoma cell line was provided from European Collection of Authenticated Cell Cultures (ECACC). HUVEC normal cells, isolated from the vascular endothelium of an umbilical cord, were used as a reference. Adherent cells were maintained in culture in Dulbecco’s modified Eagle medium/nutrient mixture F-12 (DMEM:F12) with 2 mM of L-glutamine, 10% fetal bovine serum, 100 units/mL of penicillin and 100 μg/mL of streptomycin, and incubated at 37 °C in a 5% CO2-humidified atmosphere. After 24 h, adherent cells were treated with different concentrations of the compounds for different periods of time. Cis-Pt and DOX, conventional oncology drugs used in cancer treatments, can be used as a positive control of the experiments. […] Then, cells were detached with a nonenzymatic solution of phosphate-buffered saline (PBS)/1 mM EDTA and washed twice in PBS.
(§3) The study utilized a colorimetric assay based on MTS (chemically known as 3-(4,5-dimethylthiazol-2-yl)-5-(3-carboxymethoxyphenyl)-2-(4-sulfophenyl)-2H-tetrazolium) and called CellTiter 96 Aqueous One Solution Cell proliferation Assay (Promega, Madison, WI, USA) in order to measure cell viability. The assay was performed in triplicate in 96-well microtiter plates with a flat bottom (Falcon). A number of 1 × 10^4 cells/well were cultured in 100 μL for 24 h, culture supernatants were discarded, and then cells were treated for 24 and 48 h with increasing concentrations of the tested compound. After the end of the incubation time, 20 μL of the reagent containing MTS and PES (phenazine ethosulfate) was added in each well. Plates were incubated for 4 h at 37 °C, with mild agitation every 15 min. The reduction in the tetrazolium compound to formazan was spectrophotometrically measured at λ = 492 nm using a Dynex plate reader (DYNEX Technologies MRS, Chantilly, VA, USA). The percentage of viability compared to untreated cells (considered 100% viable) was calculated with the formula:(1) Cell viability (%)=Absorbance treated cells−Absorbance culture medium/Absorbance untreated cells−Absorbance culture medium×100
(§4) The cell viability compared was calculated and data were expressed as a mean ± standard deviation (SD) of the experiments and obtained in triplicate (n = 3).

LoVo cells [1] = experiment: MTS cell viability assay, LoVo cells; format: cell-based, human; settings: Homo sapiens, LoVo
Experimental: as §1, §2, §3, §4

MCF-7 cells [2] = experiment: MTS cell viability assay, MCF-7 cells; format: cell-based, human; settings: Homo sapiens
Experimental: as §1, §2, §3, §4

HUVEC cells = experiment: Apoptosis assay (Annexin V-FITC/PI flow cytometry), HUVEC; format: cell-based, human
Experimental: (§5) Two reference concentrations, 5 μM and 50 μM, and two distinct treatment durations, 24 and 48 h, were employed to assess the influence of the test compounds on apoptosis in both normal and tumor cells. […] HUVEC cells were exposed to both drugs.
(§6) The apoptosis assay was performed according to the manufacturer’s instructions using the Annexin V-FITC kit (BD Biosciences, San Jose, CA, USA). Cells untreated and treated with the experimental compound were suspended in a cold binding buffer. The percentages of apoptotic cells were determined by double staining with Annexin V-FITC/PI. In each tube was added 400 μL of Annexin V binding buffer and the 5000 cells/sample for 15 min in the dark at room temperature. The cells were analyzed using a FACSCantoII flow-cytometer (Becton Dickinson—BD, La Jolla, CA, USA). The analysis was performed using DIVA 6.2 software to discriminate viable cells (FITC-PI-) from necrotic cells (FITC + PI+), and early apoptosis (FITC + PI) from late apoptosis.

LoVo cells [3] = experiment: Apoptosis assay (Annexin V-FITC/PI flow cytometry), LoVo; format: cell-based, human
Experimental: as §5, §6

MCF-7 cells [4] = experiment: Apoptosis assay (Annexin V-FITC/PI flow cytometry), MCF-7; format: cell-based, human
Experimental: as §5, §6

[5] = Daphnia magna toxicity assay; format: in vivo; settings: Daphnia magna, in vivo
Experimental: (§7) The Daphnia magna bioassay results are presented in Table 3 as the maximum average percentage of lethality (L%) registered for each compound and the median lethal concentration (LC50) if the values permitted its calculation.
(§8) Daphnia magna Straus is parthenogenetically maintained at ‘Carol Davila’ University’s Department of Pharmaceutical Botany and Cell Biology. The culture was consistently maintained at a temperature of 25 °C, with a 16-h light and 8-h dark photoperiod. To ensure consistency, young daphnids were carefully chosen based on their size and kept in an artificial medium for 24 h prior to the assessment. The bioassay involved 10 daphnids per replicate, using tissue culture plates with 12 wells from Greiner Bio-One. The experimental procedure followed the protocol described in previous studies.
(§9) Each determination was carried out in duplicate.

Daphnia magna = Daphnia magna toxicity assay; format: in vivo; settings: for Maximum Average L% (lethality): up to 200 µM
Experimental: as §7, §8, §9

MCF-7 = test system: MCF-7; parameters: method as in earlier work; settings: ref 16 (Yang et al.); cited from earlier work
[6] = read-out: IC50 (48 h) HUVEC, 48 h exposure
[7] = 24 h exposure, read-out: IC50 (24 h) HUVEC
[8] = read-out: IC50 (48 h) LoVo, 48 h exposure
[9] = 24 h exposure, read-out: IC50 (24 h) LoVo
[10] = MCF7, read-out: IC50 (48 h) MCF-7, 48 h exposure
[11] = MCF7, 24 h exposure, read-out: IC50 (24 h) MCF-7

Row | Compound | IC50 (HUVEC normal cells; [6]) [µM] | IC50 (HUVEC normal cells; [7]) [µM] | IC50 (LoVo cells [1]; [8]) [µM] | IC50 (LoVo cells [1]; [9]) [µM] | IC50 (MCF-7 cells [2]; [10]) [µM] | IC50 (MCF-7 cells [2]; [11]) [µM] | Total Apoptosis (%) 24 h HUVEC (HUVEC cells; 5 μM) [%] | Total Apoptosis (%) 48 h HUVEC (HUVEC cells; 5 μM) [%] | Total Apoptosis (%) 24 h HUVEC (HUVEC cells; 50 μM) [%] | Total Apoptosis (%) 48 h HUVEC (HUVEC cells; 50 μM) [%] | Total Apoptosis (%) 24 h LoVo (LoVo cells [3]; 5 μM) [%] | Total Apoptosis (%) 48 h LoVo (LoVo cells [3]; 5 μM) [%] | Total Apoptosis (%) 24 h LoVo (LoVo cells [3]; 50 μM) [%] | Total Apoptosis (%) 48 h LoVo (LoVo cells [3]; 50 μM) [%] | Total Apoptosis (%) 24 h MCF-7 (MCF-7 cells [4]; 5 μM) [%] | Total Apoptosis (%) 48 h MCF-7 (MCF-7 cells [4]; 5 μM) [%] | Total Apoptosis (%) 24 h MCF-7 (MCF-7 cells [4]; 50 μM) [%] | Total Apoptosis (%) 48 h MCF-7 (MCF-7 cells [4]; 50 μM) [%] | Maximum Average L% (lethality) (Daphnia magna; 24 h) [%] | Maximum Average L% (lethality) (Daphnia magna; 48 h) [%] | further results
1 | Cc1ccc(-c2nnc(N)s2)cc1 [2b, 5-(4-Methylphenyl)-1,3,4-thiadiazol-2-amine] | 70.9 | > 400 | 124 | 134 | > 400 | > 400 | 16.7 | 15.7 | 13.6 | 16.6 | 6.9 | 14.0 | 6.3 | 12.3 | 8.0 | 16.7 | 8.4 | 25.4 | 10 | 55 | LC50 at 48 h [5]: 144 µM
2 | COc1ccc(OC)c(-c2nnc(N)s2)c1 [2d, 5-(2,5-Dimethoxyphenyl)-1,3,4-thiadiazol-2-amine] | 94.8 | > 400 | 29.2 | 53.6 | 122 | 154 | 28.4 | 14.4 | 19.8 | 16.8 | 13.5 | 19.3 | 12.0 | 17.9 | 14.6 | 37.6 | 11.8 | 34.9 | 40 | 95 | LC50 at 24 h [5]: 241 µM; LC50 at 48 h [5]: 50.7 µM
3 | Nc1nnc(-c2ccccc2CSc2ccccc2)s1 [2f, 5-[2-(Phenylthiomethyl)phenyl]-1,3,4-thiadiazol-2-amine] | > 400 | > 400 | 80.7 | > 400 | > 400 | > 400 | 19.9 | 15.9 | 18.6 | 14.6 | 14.9 | 27.0 | 8.2 | 17.4 | 22.0 | 44.0 | 12.6 | 45.0 | 5 | 10 | –
4 | Nc1nnc(-c2ccccc2CS(=O)(=O)c2ccccc2)s1 [2g, 5-[2-(Benzenesulfonylmethyl)phenyl]-1,3,4-thiadiazol-2-amine] | 44.6 | > 400 | 2.44 | 18.1 | 23.3 | 43.3 | 19.0 | 14.7 | 19.3 | 14.1 | 13.6 | 23.6 | 19.6 | 24.8 | 18.7 | 42.2 | 19.7 | 44.5 | 0 | 20 | lethality percentages in the Daphnia test (Daphnia magna; even at the highest concentration of 200 µM): below 20%
5 | CC(=O)Nc1nnc(-c2ccccc2)s1 [3a, N-(5-Phenyl-1,3,4-thiadiazol-2-yl)acetamide] | > 400 | > 400 | > 400 | > 400 | > 400 | > 400 | 26.6 | 18.2 | 22.6 | 20.1 | 14.9 | 20.1 | 14.5 | 22.3 | 17.6 | 24.9 | 17.9 | – | 95 | 100 | LC50 at 24 h [5]: < 6.25 µM; LC50 at 48 h [5]: < 6.25 µM
6 | O=C(Nc1nnc(-c2ccccc2)s1)c1ccccc1 [3b, N-(5-Phenyl-1,3,4-thiadiazol-2-yl)benzamide] | > 400 | > 400 | 62.5 | 174 | > 400 | > 400 | 17.8 | 15.3 | 17.0 | 15.9 | 12.5 | 22.2 | 12.6 | 20.9 | 19.2 | 43.7 | 16.4 | 41.3 | 5 | 45 | viability at 200 µM (LoVo cells [1]; 24 h, 200 μM, read-out: viability of LoVo tumor cells): < 50%; LC50 at 48 h [5]: 228 µM; IC50 (MCF-7): 5.87 µM
7 | O=C(Nc1nnc(-c2ccccc2)s1)c1ccccc1CSc1ccccc1 [3c, 2-Phenylthiomethyl-N-(5-phenyl-1,3,4-thiadiazol-2-yl)benzamide] | > 400 | > 400 | > 400 | > 400 | > 400 | > 400 | 15.5 | 13.5 | 16.9 | 14.7 | 14.8 | 27.6 | 11.2 | 24.5 | 16.4 | 39.3 | 14.3 | 37.3 | 10 | 55 | LC50 at 48 h [5]: 188 µM
